What was measured:
[1] = target: Serine/threonine-protein kinase Chk2 (Homo sapiens) (UniProt O96017); test: CHEK2 SGC Tm panel (DSF); conditions: for ΔTm: Compound concentration 10.0 uM
[2] = target: Serine/threonine-protein kinase 24 (Homo sapiens) (UniProt Q9Y6E0); test: MST3 SGC Tm panel (DSF); conditions: for ΔTm: Compound concentration 10.0 uM
[3] = target: T1, Myotonin-protein kinase (Homo sapiens) (UniProt Q09013); test: DMPK SGC Tm panel (DSF); conditions: for ΔTm: Compound concentration 10.0 uM
T1 sequence (whole entry): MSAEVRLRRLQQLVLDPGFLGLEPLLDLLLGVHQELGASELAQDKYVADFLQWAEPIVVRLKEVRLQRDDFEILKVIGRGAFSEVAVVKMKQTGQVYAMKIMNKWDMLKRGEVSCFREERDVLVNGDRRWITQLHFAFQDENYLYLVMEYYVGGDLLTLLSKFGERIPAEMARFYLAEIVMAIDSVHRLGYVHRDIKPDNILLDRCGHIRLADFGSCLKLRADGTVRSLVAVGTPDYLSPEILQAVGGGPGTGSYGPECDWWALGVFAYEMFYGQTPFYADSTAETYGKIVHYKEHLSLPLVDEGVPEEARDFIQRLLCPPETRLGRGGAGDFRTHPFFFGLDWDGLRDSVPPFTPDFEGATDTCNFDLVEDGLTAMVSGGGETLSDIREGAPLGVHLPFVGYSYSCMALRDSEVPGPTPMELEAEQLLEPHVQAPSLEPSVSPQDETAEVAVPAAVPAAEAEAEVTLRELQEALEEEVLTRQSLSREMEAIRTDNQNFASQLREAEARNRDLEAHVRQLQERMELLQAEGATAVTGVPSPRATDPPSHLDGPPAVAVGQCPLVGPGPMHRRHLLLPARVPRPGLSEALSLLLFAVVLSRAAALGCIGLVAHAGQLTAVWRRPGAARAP

[4] = target: Fibroblast growth factor receptor 3 (Homo sapiens) (UniProt P22607); test: FGFR3 SGC Tm panel (DSF); conditions: for ΔTm: Compound concentration 10.0 uM
[5] = target: T2, Dual specificity mitogen-activated protein kinase kinase 4 (Homo sapiens) (UniProt P45985); test: MAP2K4 SGC Tm panel (DSF); conditions: for ΔTm: Compound concentration 10.0 uM
T2 sequence (whole entry): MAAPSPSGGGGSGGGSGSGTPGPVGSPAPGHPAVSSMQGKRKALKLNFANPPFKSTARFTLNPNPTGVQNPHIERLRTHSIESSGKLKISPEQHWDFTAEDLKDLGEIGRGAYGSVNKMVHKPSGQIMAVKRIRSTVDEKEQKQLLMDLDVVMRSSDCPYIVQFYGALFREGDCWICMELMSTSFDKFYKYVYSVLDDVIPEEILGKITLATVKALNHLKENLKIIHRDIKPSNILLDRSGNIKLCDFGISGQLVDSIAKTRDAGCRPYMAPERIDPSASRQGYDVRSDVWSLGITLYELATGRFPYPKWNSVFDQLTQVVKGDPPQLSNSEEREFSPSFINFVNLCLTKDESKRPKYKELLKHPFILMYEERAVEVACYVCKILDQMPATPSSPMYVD

[6] = target: Vascular endothelial growth factor receptor 1 (Homo sapiens) (UniProt P17948); test: FLT1 SGC Tm panel (DSF); conditions: for ΔTm: Compound concentration 10.0 uM
[7] = target: T3, Serine/threonine-protein kinase PLK4 (Homo sapiens) (UniProt O00444); test: PLK4 SGC Tm panel (DSF); conditions: for ΔTm: Compound concentration 10.0 uM
T3 sequence (whole entry): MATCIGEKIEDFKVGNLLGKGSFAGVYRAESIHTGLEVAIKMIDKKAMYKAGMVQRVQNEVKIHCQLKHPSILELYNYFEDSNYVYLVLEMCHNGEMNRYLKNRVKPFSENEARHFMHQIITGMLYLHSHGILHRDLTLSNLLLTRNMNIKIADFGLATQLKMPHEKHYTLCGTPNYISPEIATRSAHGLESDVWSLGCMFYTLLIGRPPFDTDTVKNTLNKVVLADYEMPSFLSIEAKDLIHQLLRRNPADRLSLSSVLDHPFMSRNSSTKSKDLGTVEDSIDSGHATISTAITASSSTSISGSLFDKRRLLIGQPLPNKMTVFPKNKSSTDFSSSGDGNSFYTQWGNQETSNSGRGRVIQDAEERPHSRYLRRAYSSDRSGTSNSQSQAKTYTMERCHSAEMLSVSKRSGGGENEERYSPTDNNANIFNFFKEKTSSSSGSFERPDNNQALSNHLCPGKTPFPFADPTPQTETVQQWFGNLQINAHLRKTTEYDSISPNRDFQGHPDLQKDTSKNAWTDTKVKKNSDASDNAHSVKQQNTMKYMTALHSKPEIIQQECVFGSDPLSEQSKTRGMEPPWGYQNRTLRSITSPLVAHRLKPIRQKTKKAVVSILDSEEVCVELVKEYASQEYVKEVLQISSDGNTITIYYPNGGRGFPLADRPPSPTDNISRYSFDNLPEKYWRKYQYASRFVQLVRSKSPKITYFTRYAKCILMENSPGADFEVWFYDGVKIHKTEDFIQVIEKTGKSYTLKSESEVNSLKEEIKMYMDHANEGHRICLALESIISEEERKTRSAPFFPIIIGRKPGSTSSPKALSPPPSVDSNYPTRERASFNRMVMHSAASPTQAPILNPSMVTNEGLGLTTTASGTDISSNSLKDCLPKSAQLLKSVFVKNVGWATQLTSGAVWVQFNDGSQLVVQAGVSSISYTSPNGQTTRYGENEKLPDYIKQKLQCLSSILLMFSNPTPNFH

[8] = target: T4, Serine/threonine-protein kinase ULK3 (Homo sapiens) (UniProt Q6PHR2); test: ULK3 SGC Tm panel (DSF); conditions: for ΔTm: Compound concentration 10.0 uM
T4 sequence (whole entry): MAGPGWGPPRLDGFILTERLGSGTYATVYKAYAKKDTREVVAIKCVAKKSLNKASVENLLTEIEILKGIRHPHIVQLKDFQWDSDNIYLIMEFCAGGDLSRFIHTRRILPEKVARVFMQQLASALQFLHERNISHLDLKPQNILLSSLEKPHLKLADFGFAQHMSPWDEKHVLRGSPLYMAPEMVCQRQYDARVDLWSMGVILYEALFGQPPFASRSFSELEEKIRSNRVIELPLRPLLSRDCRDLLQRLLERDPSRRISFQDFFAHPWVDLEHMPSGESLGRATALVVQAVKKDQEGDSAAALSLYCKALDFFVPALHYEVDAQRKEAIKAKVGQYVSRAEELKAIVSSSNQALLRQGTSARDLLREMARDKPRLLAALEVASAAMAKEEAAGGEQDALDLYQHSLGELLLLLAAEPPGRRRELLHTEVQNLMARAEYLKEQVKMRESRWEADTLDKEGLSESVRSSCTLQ

[9] = target: 5-hydroxytryptamine receptor 7 (Homo sapiens) (UniProt P34969); conditions: Compound concentration 10.0 uM
[10] = target: D(1A) dopamine receptor (Homo sapiens) (UniProt P21728); conditions: Compound concentration 10.0 uM
Sequence of D(1A) dopamine receptor (Homo sapiens) (P21728 whole entry): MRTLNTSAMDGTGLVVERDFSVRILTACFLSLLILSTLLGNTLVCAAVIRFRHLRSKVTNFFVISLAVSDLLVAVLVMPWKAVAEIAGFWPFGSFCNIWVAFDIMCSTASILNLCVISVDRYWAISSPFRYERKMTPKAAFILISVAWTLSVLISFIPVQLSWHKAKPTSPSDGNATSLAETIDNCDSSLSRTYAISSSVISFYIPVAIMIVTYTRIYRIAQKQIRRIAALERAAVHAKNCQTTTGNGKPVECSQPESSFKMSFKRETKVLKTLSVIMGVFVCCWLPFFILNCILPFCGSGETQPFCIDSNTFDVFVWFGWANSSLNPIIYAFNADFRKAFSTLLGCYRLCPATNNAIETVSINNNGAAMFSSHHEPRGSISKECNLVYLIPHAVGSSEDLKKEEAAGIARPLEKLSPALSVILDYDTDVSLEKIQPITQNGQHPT

Sequence of Vascular endothelial growth factor receptor 1 (Homo sapiens) (P17948 whole entry): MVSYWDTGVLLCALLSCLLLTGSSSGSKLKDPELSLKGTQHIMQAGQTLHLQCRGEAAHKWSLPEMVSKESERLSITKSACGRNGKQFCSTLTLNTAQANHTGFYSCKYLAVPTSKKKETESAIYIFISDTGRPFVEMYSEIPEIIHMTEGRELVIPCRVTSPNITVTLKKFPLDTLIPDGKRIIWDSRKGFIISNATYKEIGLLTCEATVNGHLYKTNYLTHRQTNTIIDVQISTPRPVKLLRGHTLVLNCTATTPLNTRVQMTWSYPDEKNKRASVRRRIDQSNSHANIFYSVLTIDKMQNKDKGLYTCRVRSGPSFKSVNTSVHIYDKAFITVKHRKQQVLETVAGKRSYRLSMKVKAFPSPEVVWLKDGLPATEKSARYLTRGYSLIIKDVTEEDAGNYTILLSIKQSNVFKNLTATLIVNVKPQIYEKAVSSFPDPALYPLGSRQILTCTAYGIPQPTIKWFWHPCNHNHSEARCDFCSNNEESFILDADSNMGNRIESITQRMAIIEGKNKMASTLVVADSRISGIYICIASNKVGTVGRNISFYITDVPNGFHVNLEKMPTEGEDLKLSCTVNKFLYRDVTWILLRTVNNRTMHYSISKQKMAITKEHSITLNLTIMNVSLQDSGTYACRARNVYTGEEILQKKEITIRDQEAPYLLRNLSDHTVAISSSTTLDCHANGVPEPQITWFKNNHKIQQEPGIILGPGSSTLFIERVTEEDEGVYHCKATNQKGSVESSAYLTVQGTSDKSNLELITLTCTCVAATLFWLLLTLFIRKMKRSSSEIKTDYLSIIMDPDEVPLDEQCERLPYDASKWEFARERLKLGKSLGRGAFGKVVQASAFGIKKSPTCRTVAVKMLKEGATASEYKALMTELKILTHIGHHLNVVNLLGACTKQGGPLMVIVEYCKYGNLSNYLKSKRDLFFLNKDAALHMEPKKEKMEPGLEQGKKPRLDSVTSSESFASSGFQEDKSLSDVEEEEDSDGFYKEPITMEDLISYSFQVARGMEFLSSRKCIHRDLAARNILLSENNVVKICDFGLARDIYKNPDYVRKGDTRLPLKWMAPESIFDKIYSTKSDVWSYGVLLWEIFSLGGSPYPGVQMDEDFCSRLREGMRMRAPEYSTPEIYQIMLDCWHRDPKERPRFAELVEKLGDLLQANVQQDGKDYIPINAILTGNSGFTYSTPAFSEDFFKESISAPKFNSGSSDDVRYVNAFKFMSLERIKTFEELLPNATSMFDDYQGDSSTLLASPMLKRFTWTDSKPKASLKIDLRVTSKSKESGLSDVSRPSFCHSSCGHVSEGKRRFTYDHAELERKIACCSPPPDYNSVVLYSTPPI
Sequence of Serine/threonine-protein kinase Chk2 (Homo sapiens) (O96017 whole entry): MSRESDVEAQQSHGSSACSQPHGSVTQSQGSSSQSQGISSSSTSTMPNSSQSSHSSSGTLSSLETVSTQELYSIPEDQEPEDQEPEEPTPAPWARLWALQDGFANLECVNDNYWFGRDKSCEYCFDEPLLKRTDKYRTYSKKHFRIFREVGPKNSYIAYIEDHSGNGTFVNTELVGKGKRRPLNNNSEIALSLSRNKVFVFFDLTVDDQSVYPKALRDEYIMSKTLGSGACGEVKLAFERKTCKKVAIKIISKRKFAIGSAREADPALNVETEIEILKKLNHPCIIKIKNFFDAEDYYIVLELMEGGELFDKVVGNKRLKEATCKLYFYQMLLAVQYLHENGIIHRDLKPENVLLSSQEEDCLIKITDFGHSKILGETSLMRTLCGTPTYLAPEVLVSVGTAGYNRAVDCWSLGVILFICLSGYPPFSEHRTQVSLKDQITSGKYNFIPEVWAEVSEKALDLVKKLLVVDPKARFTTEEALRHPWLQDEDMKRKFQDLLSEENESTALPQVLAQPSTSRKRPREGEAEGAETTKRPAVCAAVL
Sequence of Fibroblast growth factor receptor 3 (Homo sapiens) (P22607 23-806 limits assumed): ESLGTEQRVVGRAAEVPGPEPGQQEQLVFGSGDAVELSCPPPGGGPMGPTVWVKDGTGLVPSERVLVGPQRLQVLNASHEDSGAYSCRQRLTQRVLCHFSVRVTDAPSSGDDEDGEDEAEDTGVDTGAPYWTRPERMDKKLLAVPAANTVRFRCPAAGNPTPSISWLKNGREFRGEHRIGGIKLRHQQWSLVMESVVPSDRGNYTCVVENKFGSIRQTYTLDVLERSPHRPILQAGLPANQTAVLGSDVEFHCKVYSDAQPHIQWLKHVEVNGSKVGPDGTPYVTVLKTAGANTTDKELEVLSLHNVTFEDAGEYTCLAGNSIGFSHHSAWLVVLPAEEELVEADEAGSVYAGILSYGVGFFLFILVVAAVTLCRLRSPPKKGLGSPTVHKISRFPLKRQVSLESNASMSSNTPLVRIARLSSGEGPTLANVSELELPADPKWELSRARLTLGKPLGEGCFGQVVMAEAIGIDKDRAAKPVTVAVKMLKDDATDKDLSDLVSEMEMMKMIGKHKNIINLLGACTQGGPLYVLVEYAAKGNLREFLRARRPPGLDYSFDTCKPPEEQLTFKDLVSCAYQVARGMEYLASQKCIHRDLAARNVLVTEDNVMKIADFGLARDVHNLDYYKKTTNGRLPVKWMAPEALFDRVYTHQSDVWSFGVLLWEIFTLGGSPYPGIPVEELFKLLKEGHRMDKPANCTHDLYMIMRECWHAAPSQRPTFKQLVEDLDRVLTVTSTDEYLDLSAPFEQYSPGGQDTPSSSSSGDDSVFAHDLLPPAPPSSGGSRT
Sequence of Serine/threonine-protein kinase 24 (Homo sapiens) (Q9Y6E0 whole entry, looked up): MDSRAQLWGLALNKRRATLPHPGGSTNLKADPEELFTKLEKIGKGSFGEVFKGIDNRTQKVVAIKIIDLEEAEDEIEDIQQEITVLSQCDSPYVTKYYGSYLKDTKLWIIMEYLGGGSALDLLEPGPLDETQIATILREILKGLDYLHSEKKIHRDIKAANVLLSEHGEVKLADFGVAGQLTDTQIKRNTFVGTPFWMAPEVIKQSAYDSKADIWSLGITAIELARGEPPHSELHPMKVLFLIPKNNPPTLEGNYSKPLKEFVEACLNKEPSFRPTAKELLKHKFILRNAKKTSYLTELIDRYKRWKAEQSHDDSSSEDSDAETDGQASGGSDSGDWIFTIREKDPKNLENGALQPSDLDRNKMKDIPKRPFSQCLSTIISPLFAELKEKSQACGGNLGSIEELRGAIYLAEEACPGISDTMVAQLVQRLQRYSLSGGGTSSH
Sequence of 5-hydroxytryptamine receptor 7 (Homo sapiens) (P34969 whole entry): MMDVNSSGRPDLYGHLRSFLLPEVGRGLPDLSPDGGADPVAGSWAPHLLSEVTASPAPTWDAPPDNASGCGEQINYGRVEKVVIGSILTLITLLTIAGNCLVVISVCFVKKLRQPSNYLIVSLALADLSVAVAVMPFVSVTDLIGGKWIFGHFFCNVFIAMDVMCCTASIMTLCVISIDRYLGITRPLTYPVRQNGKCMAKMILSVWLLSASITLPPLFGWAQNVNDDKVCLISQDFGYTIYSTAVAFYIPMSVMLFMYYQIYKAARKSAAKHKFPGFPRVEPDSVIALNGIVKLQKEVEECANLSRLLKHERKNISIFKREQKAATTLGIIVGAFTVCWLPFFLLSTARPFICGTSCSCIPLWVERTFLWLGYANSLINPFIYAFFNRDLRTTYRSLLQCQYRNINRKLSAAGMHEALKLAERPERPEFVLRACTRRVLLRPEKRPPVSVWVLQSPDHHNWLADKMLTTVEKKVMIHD

SMILES | delta Tm Staurosporine positive control [1] | ΔTm [1] | delta Tm Staurosporine positive control [2] | ΔTm [2] | delta Tm Staurosporine positive control [3] | ΔTm [3] | delta Tm Staurosporine positive control [4] | ΔTm [4] | delta Tm Staurosporine positive control [5] | ΔTm [5] | delta Tm Staurosporine positive control [6] | ΔTm [6] | delta Tm Staurosporine positive control [7] | ΔTm [7] | delta Tm Staurosporine positive control [8] | ΔTm [8] | inhibition [9] [%] | inhibition [10] [%]
COC[C@H](NC(=O)c1ccn(S(C)(=O)=O)c1)C(=O)Nc1nc(-c2cccc(-c3ccn(C)n3)c2)cs1 | 16.7 | -0.718 | 6.74 | -5.55 | 9.28 | 0.564 | 11.8 | 0.361 | 10.8 | 0.427 | 11.1 | -0.0497 | 19.9 | 0.546 | 18.2 | 0.301 | 3.33 | 30.9
C[C@H](NC(=O)c1cn(C2(C#N)CC2)cn1)C(=O)Nc1nc(-c2cccc(-c3ccn(C)n3)c2)cs1 | 16.7 | -1.06 | 6.74 | -1.99 | 9.28 | -0.281 | 11.8 | 1.77 | 10.8 | 0.342 | 11.1 | -0.217 | 19.9 | 0.729 | 18.2 | 0.155 | 23 | 38.9

From ChEMBL document CHEMBL5303766, “Data for DCP probe FHT-2344” (2022)
